Values of other authors as cited in patent US6875451B2, “Compositions and methods for the treatment of primary and metastatic neoplastic diseases using arsenic compounds” (PolaRx Biopharmaceuticals Inc., priority 1997, dated 2005).

Tested on: cell lines representative of chronic B-cell leukemia
Details: cited from earlier work

Nc1nc(N)nc(Nc2ccc([As]3SCC(CO)S3)cc2)n1 (stereo not shown) [melarsoprol]
apoptosis: induce apoptosis
